{"source": "patent US20060206946A1", "about": "“Method of disrupting heme transport in nematodes and of modelling and evaluating eukaryotic heme transport” (priority 2005, published 2006)", "key": {"[1]": {"test_system": "C. elegans wild-type N2 strain", "assay": "Worm culture and growth assay in axenic CeHR/mCeHR liquid medium", "type": "in vivo", "parameters": "key to Growth 1.6 μM hemin / Growth 0.5 μM GaPP: + = wild type equivalent In growth; ND: No growth", "protocol": "(D) Biphasic response of C. elegans cultured in the presence of increasing amounts of hemin chloride (μM). Equal numbers of synchronized L1 larvae were grown in 24-well plates in mCeHR medium for 9 days and quantified (worms/μl) by microscopy. Each data point represents the mean±SD from three separate experiments performed in triplicate.\n(A) Aerobic growth of C. elegans in mCeFIR medium with 20 μM hemin supplemented with either gallium protoporphyrin IX (GaPP) or gallium salts. Synchronized L1 larvae were grown for 9 days in 24-well plates and quantified (worms/μl) by microscopy. Each data point represents the mean from a single experiment, and each experiment was performed in triplicate. Inset depicts the GaPP analysis at lower concentrations for clarity.\n(B) Effect of heme on the cytotoxicity of GaPP. Synchronized L1 larvae were inoculated in 24-well plates containing mCeHR medium with either 0, 2, 4, or 6 μM GaPP and increasing hemin (μM). The number of worms per μl was measured on day 9 and the data are presented as mean±SD.\nFIG. 9 depicts worm utilization of heme-iron under iron deprivation. Equal numbers of synchronized L1 larvae were grown in the presence of 4, 20, and 100 μM hemin, either in basal mCeHR medium (set 1), or basal medium lacking exogenous iron (set 2), or as set 2 with 1 μM of the iron chelator ferrozine (set 3), or as set 3 with 486 μM ferrous ammonium sulfate (set 4). These values of ferrozine and iron were empirically determined by performing dose-response experiments and analyzing worm growth. The number of worms per μl was measured on day 9 and the data presented as mean±SD performed in triplicate. P<0.001 between sets 1 and 3.\nTo qualitatively and quantitatively determine the heme requirement of C. elegans, we assessed growth at various heme concentrations. Equal numbers of L1 larvae were inoculated in CeHR medium with either no cytochrome c and hemin, or with cytochrome c and increasing amounts of hemin (FIG. 4A). The effect of hemin became apparent within 48 hours and by 9 days, the heme-deplete worms were severely growth retarded at the L1/L2 stages. […] However, this stimulatory effect of heme was toxic to worms grown at heme concentrations >750 μM. To quantitatively assess the effect of heme on worms, we counted the number of live worms grown under different concentration of heme using DIC microscopy. […] On the basis of this association between heme and the growth and reproduction of C. elegans, we conclude that the biphasic nature of heme is likely due to the need for heme under heme-deprived conditions to perform essential metabolic functions, and the lethality of heme at high concentrations can be attributed to its cytotoxic activity.\n(§1) Worm Culture and Growth Assays. Free-living worms were cultured in CeHR axenic liquid medium (Dr. Eric Clegg, Personal Communication). […] CeHR medium was modified (henceforth called mCeHR) to eliminate all sources of exogenously added heme; basal growth medium comprised 20 μM hemin chloride (Frontier Scientific, Logan, Utah) and 150 μM of ferrous ammonium sulfate (Sigma Chemicals). Worm strains were grown in mCeHR medium under aerobic conditions in tissue culture flasks at 20° C. ˜3.7×10^6 worms were routinely obtained after 3.5 to 4 days in a T75 flask with 30 ml basal medium from an initial inoculum of −1.5×10^5 worms. For initial culturing of worms in axenic media, three generations of worms were sequentially bleached (1.1% bleach/0.55 M NaOH) to eliminate any contaminating bacterial carryover from agar plates. In all dose-response experiments, worms were growth synchronized by treating the gravid hermaphrodite worms with bleach to dissolve adult worms. The eggs, resistant to bleach, were liberated from the carcasses and extensively washed with M9 buffer followed by overnight hatching in M9 buffer to synchronize growth. By harvesting at appropriate time intervals, synchronous larval stages and adult staged worms were collected for experimental manipulations. […]"}, "C. elegans mutant IH828": {"test_system": "C. elegans mutant IH828", "assay": "Growth of heme resistant mutant in CeHR medium", "type": "in vivo, Caenorhabditis elegans", "conditions": "in vivo", "protocol": "(§2) To further increase the stringency of our genetic screen we split the contents from each 800 μM hemin selection flasks into two flasks containing either 800 μM or 1000 μM hemin. This allowed us to use another tier of positive selection to identify mutants with greater resistance to heme toxicity. Mutants from each flask were isolated and treated as a separate entity by giving an identification number based on the Genetic Nomenclature Guidelines used for C. elegans (http://biosci.umn.edu/CGC/Nomenclature/nomenguid.htm). To eliminate EMS-induced spurious mutations that could result in false positive, the mutants were outcrossed to wild-type N2 males. After five outcrosses, which replaces ˜97% of the mutant genome, mutants that bred true were selected for further analysis. Using this procedure, we isolated 13 individual mutants that were resistant to heme toxicity. These mutants were further characterized by analyzing Mendelian segregation ratios, X-linkage, phenotype penetrance, generation times, brood size, and their ability to grow under low hemin. […] This observation was surprising because we anticipated that high heme-resistant mutants will grow poorly under low heme. Based on the mutant's growth profile at low and high heme levels, we broadly categorized them into three phenotypic classes: class A, class B and class C (FIG. 13). These “phenoclusters” have the following growth phenotype: (a) three mutants IH728, IH938, IH731 show with robust growth under low and high (≧800 μM heme (FIG. 13B), (b) one mutant IH828 show exceptional growth under low heme, moderate growth at ≦800 μM heme, and no growth at 1000 μM hemin (FIG. 13C), and (c) six mutants IH921, IH11058, IH1068n, IH1068d, IH1048, and IH718 that show moderate growth under high heme (≦800 μM), but normal growth under low heme (FIG. 13D). By classifying these mutants into phenoclusters, we can focus our efforts on the phenotypic datasets to map the molecular networks and pathways involved in heme dependent processes. For instance, mutants in a cluster may have mutations within the same gene or in multiple genes but within the same pathway.\nas §1, with “manipulations. Identical numbers of synchronized L1 larvae were inoculated into media with different heme concentrations in 12- or 24-well culture plates. Worm growth was monitored each day and an aliquot was obtained for counting by microscopy usually at days 3, 6, and 9. The worms in each well were counted twice and each growth condition was analyzed in triplicate. P values for statistical significance were calculated utilizing a one-way ANOVA with Student-Newman-Keuls multiple comparison test using GraphPad Instat version 3.01.” for “manipulations.”"}, "C. elegans mutant IH1048": {"test_system": "C. elegans mutant IH1048", "assay": "Growth of heme resistant mutant in CeHR medium", "type": "in vivo, Caenorhabditis elegans", "parameters": "key to Growth 1.6 μM hemin / Growth 0.5 μM GaPP: + = wild type equivalent In growth; ND: No growth", "protocol": "as §2\nas §1, with “manipulations. Identical numbers of synchronized L1 larvae were inoculated into media with different heme concentrations in 12- or 24-well culture plates. Worm growth was monitored each day and an aliquot was obtained for counting by microscopy usually at days 3, 6, and 9. The worms in each well were counted twice and each growth condition was analyzed in triplicate. P values for statistical significance were calculated utilizing a one-way ANOVA with Student-Newman-Keuls multiple comparison test using GraphPad Instat version 3.01.” for “manipulations.”"}, "[2]": {"test_system": "C. elegans mutant IH1068 d", "assay": "Growth of heme resistant mutant in CeHR medium", "type": "in vivo, Caenorhabditis elegans", "parameters": "key to Growth 1.6 μM hemin / Growth 0.5 μM GaPP: + = wild type equivalent In growth; ND: No growth", "protocol": "as §2\nas §1, with “manipulations. Identical numbers of synchronized L1 larvae were inoculated into media with different heme concentrations in 12- or 24-well culture plates. Worm growth was monitored each day and an aliquot was obtained for counting by microscopy usually at days 3, 6, and 9. The worms in each well were counted twice and each growth condition was analyzed in triplicate. P values for statistical significance were calculated utilizing a one-way ANOVA with Student-Newman-Keuls multiple comparison test using GraphPad Instat version 3.01.” for “manipulations.”"}, "[3]": {"test_system": "C. elegans mutant IH1068 n", "assay": "Growth of heme resistant mutant in CeHR medium", "type": "in vivo, Caenorhabditis elegans", "parameters": "key to Growth 1.6 μM hemin / Growth 0.5 μM GaPP: + = wild type equivalent In growth; ND: No growth", "protocol": "as §2\nas §1, with “manipulations. Identical numbers of synchronized L1 larvae were inoculated into media with different heme concentrations in 12- or 24-well culture plates. Worm growth was monitored each day and an aliquot was obtained for counting by microscopy usually at days 3, 6, and 9. The worms in each well were counted twice and each growth condition was analyzed in triplicate. P values for statistical significance were calculated utilizing a one-way ANOVA with Student-Newman-Keuls multiple comparison test using GraphPad Instat version 3.01.” for “manipulations.”"}, "C. elegans mutant IH718": {"test_system": "C. elegans mutant IH718", "assay": "Growth of heme resistant mutant in CeHR medium", "type": "in vivo, Caenorhabditis elegans", "parameters": "key: + = wild type equivalent In growth; ND: No growth", "protocol": "To further increase the stringency of our genetic screen we split the contents from each 800 μM hemin selection flasks into two flasks containing either 800 μM or 1000 μM hemin. This allowed us to use another tier of positive selection to identify mutants with greater resistance to heme toxicity. Mutants from each flask were isolated and treated as a separate entity by giving an identification number based on the Genetic Nomenclature Guidelines used for C. elegans (http://biosci.umn.edu/CGC/Nomenclature/nomenguid.htm). To eliminate EMS-induced spurious mutations that could result in false positive, the mutants were outcrossed to wild-type N2 males. After five outcrosses, which replaces ˜97% of the mutant genome, mutants that bred true were selected for further analysis. Using this procedure, we isolated 13 individual mutants that were resistant to heme toxicity. […]\nWorm Culture and Growth Assays. […] Worm growth was monitored each day and an aliquot was obtained for counting by microscopy usually at days 3, 6, and 9. The worms in each well were counted twice and each growth condition was analyzed in triplicate. P values for statistical significance were calculated utilizing a one-way ANOVA with Student-Newman-Keuls multiple comparison test using GraphPad Instat version 3.01. […]"}}, "data": [{"smiles": "C=CC1=C(C)C2=[N+]3C1=Cc1c(C)c(C=C)c4[n]1[Ga-]31[n]3c(c(C)c(CCC(=O)O)c3=CC3=[N+]1C(=C4)C(C)=C3CCC(=O)O)=C2", "note": "(centres unmarked) [GaPP, gallium protoporphyrin IX]", "values": [{"measurement": "toxic effect of GaPP in the presence of increasing levels of hemin", "setting": "[1]; 0, 2, 4 or 6 μM GaPP, day 9", "result": "attenuated"}, {"measurement": "toxicity rank among six non-iron metalloporphyrins tested", "setting": "[1]; 4 μM hemin", "result": "most toxic heme analog"}, {"measurement": "Growth 0.5 μM GaPP", "setting": "[1]; Control Wild-type (N2)", "result": "+"}, {"measurement": "sensitivity compared to hemin", "setting": "[1]; F1 progeny", "result": "3,200 fold"}, {"measurement": "GaPP concentration at which worms were growth arrested", "setting": "[1]; F1 progeny of surviving P0 worms grown at lower GaPP", "result": 0.25, "unit": "µM"}, {"measurement": "toxicity relative to hemin", "setting": "[1]; P0 and F1 animals", "result": "800-3000 times"}, {"measurement": "sensitivity compared to hemin", "setting": "[1]; P0 worms", "result": 800, "unit": "fold"}, {"measurement": "GaPP concentration at which worms were growth retarded", "setting": "[1]; P0 worms, medium with hemin", "result": 1, "unit": "µM"}, {"measurement": "sensitivity of worms to GaPPIX compared to heme", "setting": "[1]; in vivo", "result": 30, "unit": "times"}, {"measurement": "resistance of IH828 to GaPP toxicity", "setting": "C. elegans mutant IH828", "result": "extremely resistant"}, {"measurement": "Growth 0.5 μM GaPP", "setting": "C. elegans mutant IH1048", "result": "+"}, {"measurement": "Growth 0.5 μM GaPP", "setting": "[2]", "result": "+"}, {"measurement": "Growth 0.5 μM GaPP", "setting": "[3]", "result": "+"}, {"measurement": "Growth 0.5 μM GaPP", "setting": "C. elegans mutant IH718", "result": "+"}]}]}
